Results on 30 molecules are retold here after US6476025B1, “Phenylphennanthridines with PDE-IV inhibiting activity” (Altana Pharma AG, priority 1999, dated 2002).

For this assay, the system named is PDE4. Briefly: Inhibition of PDE4 activity (method of Bauer and Schwabe, adapted to microtiter plates). The class given is biochemical. As to conditions: inhibitory concentration as −log IC50 (mol/l). The protocol: The activity test was carried out according to the method of Bauer and Schwabe, which was adapted to microtiter plates (Naunyn-Schmiedeberg's Arch. Pharmacol. 1980, 311, 193-198). The PDE reaction takes place in the first step here. In a second step, the resulting 5′-nucleotide is cleaved by a 5′-nucleotidase of the snake venom of Crotalus atrox to the uncharged nucleoside. In the third step, the nucleoside is separated from the remaining charged substrate on ion-exchange columns. The columns are eluted directly into minivials, into which 2 ml of scintillator fluid are additionally added, for counting using 2 ml of 30 mM ammonium formate (pH 6.0).
The inhibitory values determined for the compounds according to the invention [inhibitory concentration as −log Ic50 (mol/l)] follow from the following Table A, in which the numbers of the compounds correspond to the numbers of the examples.
With `COc1cc2c(cc1OC)[C@@H]1CCCC[C@@H]1N=C2c1ccc(C(=O)c2ccc(Cl)cc2)cc1` (relative stereo) [Compound 27, (−)-cis-8,9-Dimethoxy-6-[4-(4-chlorbenzoyl)phenyl]-1,2,3,4,4a,10b-hexahydrophenanthridine], the “−log IC50, inhibition of the PDE4 activity” value (shortened to “−log IC50, inhibition”) amounted to 7.3.

As to `COc1cc2c(cc1OC)[C@@H]1CCCC[C@@H]1N=C2c1ccc(C(=O)c2cccc(Cl)c2)cc1` (relative stereo) [Compound 28, (−)-cis-8,9-Dimethoxy-6-[4-(3-chlorbenzoyl)phenyl]-1,2,3,4,4a,10b-hexahydrophenanthridine], the “−log IC50, inhibition” value is 7.61.

As to `COc1cc2c(cc1OC)C1CCCCC1N=C2c1ccc(C(C)=O)cc1` (single isomer, unassigned; (-)) [Compound 2, (−)-cis-8,9-Dimethoxy-6-(4-acetophenyl)-1,2,3,4,4a,10b-hexahydrophenanthridine], the “−log IC50, inhibition” value is given as 7.27.

On to `COc1cc2c(cc1OC)C1CCCCC1N=C2c1ccc(OCC2CC2)c(OCC2CC2)c1` (single isomer, unassigned; (-)) [Compound 15, (−)-cis-8,9-Dimethoxy-6-[3,4-bis-(cyclopropylmethoxy)phenyl]-i,2,3,4,4a,10b-hexahydrophenanthridine], for which the “−log IC50, inhibition” value is on record as 7.89.

For the molecule `COc1cc2c(cc1OC)C1CCCCC1N=C2c1ccc(C(=O)N2CCCCC2)cc1` (single isomer, unassigned; (-)) [Compound 16, (−)-cis-8,9-Dimethoxy-[4-(piperdin-1-ylcarbonyl)phenyl]-1,2,3,4,4a,10b-hexahydrophenanthridine], the “−log IC50, inhibition” value was 8.02.

Regarding `COc1cc2c(cc1OC)C1CCCCC1N=C2c1ccc(CN2CCN(C)CC2)cc1` (single isomer, unassigned; (-)) [Compound 22, (−)-cis-8,9-Dimethoxy-6-[4-(4-methylpiperazin-1-ylmethyl)phenyl]-1,2,3,4,4a,10b-hexphenanthridine], the “−log IC50, inhibition” value was 7.27.

With `COc1cc2c(cc1OC)C1CCCCC1N=C2c1ccc(C(=O)c2ccncc2)cc1` (single isomer, unassigned; (-)) [Compound 32, (−)-cis-8,9-Dimethoxy-6-[4-(pyridyl-4-carbonyl)phenyl]-1,2,3,4,4a,10b-hexahydrophenanthridine], the “−log IC50, inhibition” value came out at 7.45.

Turning to `CCOc1cc2c(cc1OC)C(c1ccc(OCC3CC3)c(OCC3CC3)c1)=NC1CCCCC21` (single isomer, unassigned; (-)) [Compound 40, (−)-cis-9-Ethoxy-8-methoxy-6-[3,4-bis(cyclopropylmethoxy)phenyl]-4,2,3,4,4a,10b-hexahydrophenanthridine], the “−log IC50, inhibition” value is listed as 8.65.

Take `COc1cc2c(cc1OC)C1CCCCC1N=C2c1ccc(OC)c(OC2CCC2)c1` (single isomer, unassigned; (-)) [Compound 44, (−)cis-8,9-Dimethoxy-6-[(3-cyclobutoxy-4-methoxy)phenyl]-1,2,3,4,4a,10b-hexahydrophenanthridine]: the “−log IC50, inhibition” value was 7.58.

On to `COc1cc2c(cc1OC)C1CCCCC1N=C2c1ccc(NC(C)=O)c(OCC2CC2)c1` (single isomer, unassigned; (-)) [Compound 45, (−)-cis-8,9-Dimethoxy-6-[(3-cyclopropylmethoxy-4-acetamido)phenyl]-1,2,3,4,4a,10b-hexahydrophenanthridine], for which the “−log IC50, inhibition” value is given as 8.04.

On to `COc1cc2c(cc1OC)C1CCCCC1N=C2c1ccc(OC)c(N2CCCC2)c1` (single isomer, unassigned; (-)) [Compound 46, (−)-cis-8,9-Dimethoxy-6-[(4-methoxy-3-pyrrolidin-1-yl)phenyl]-1,2,3,4,4a,10b-hexahydrophenanthridine], for which the “−log IC50, inhibition” value is 7.16.

For `COc1cc2c(cc1OC)[C@@H]1CCCC[C@@H]1N=C2c1ccc(C(=O)c2ccccc2)cc1` [Compound 1, (−)-cis-8,9-Dimethoxy-6-(4-benzoylphenyl)-1,2,3,4,4a,10b-hexahydrophenanthridine], the “−log IC50, inhibition” value came out at 7.82.

With `COc1cc2c(cc1OC)[C@@H]1CCCC[C@@H]1N=C2c1cccc(C(=O)c2ccccc2)c1` [Compound 3, (−)-cis-8,9-Dimethoxy-6-(3-benzoylphenyl)-1,2,3,4,4a,10b-hexahydrophenanthridine], the “−log IC50, inhibition” value was found to be 8.64.

With `COc1cc2c(cc1OC)[C@@H]1CCCC[C@@H]1N=C2c1cccc(Oc2ccccc2)c1` [Compound 5, (−)-cis-8,9-Dimethoxy-6-(3-phenoxyphenyl)-1,2,3,4,4a,10b-hexahydrophenanthridine], the “−log IC50, inhibition” value stood at 8.54.

As for `COc1cc2c(cc1OC)[C@@H]1CCCC[C@@H]1N=C2c1cccc(OCCc2ccccc2)c1` [Compound 8, (−)-cis-8,9-Dimethoxy-6-(3-phenethyloxyphenyl)-1,2,3,4,4a,10b-hexahydrophenanthridine], the “−log IC50, inhibition” value is on record as 8.41.

For the molecule `COc1cc2c(cc1OC)[C@@H]1CCCC[C@@H]1N=C2c1ccc(OC)c(OC2CCCC2)c1` [Compound 9, (−)-cis-6-(3-Cyclopentyloxy-4-methoxyphenyl)-8,9-dimethoxy-1,2,3,4,4a,10b-hexahydrophenanthridine], the “−log IC50, inhibition” value amounted to 7.79.

Regarding `COc1cc2c(cc1OC)[C@@H]1CCCC[C@@H]1N=C2c1ccc(OCc2ccccc2)c(OCC2CC2)c1` [Compound 10, (−)-cis-6-(4-Benzyloxy-3-cyclopropylmethoxyphenyl)-8,9-dimethoxy-1,2,3,4,4a,10b-hexahydrophenanthridine], the “−log IC50, inhibition” value is 8.09.

On to `COc1cc2c(cc1OC)[C@@H]1CCCC[C@@H]1N=C2c1ccc(OC)c(OCc2ccccc2)c1` [Compound 11, (+)-cis-6-(3-Benzyloxy-4-methoxyphenyl)-8,9-dimethoxy-1,2,3,4,4a,10b-hexahydrophenanthridine], for which the “−log IC50, inhibition” value stood at 8.03.

As to `COc1cc2c(cc1OC)[C@@H]1CCCC[C@@H]1N=C2c1ccc(OC)c(OCC2CC2)c1` [Compound 12, (−)-cis-8,9-Dimethoxy-6-[3-cyclopropylmethoxy4-methoxyphenyl]-1,2,3,4,4a,10b-hexahydrophenanthridine], the “−log IC50, inhibition” value turned out to be 7.80.

With `COc1cc2c(cc1OC)[C@@H]1CCCC[C@@H]1N=C2c1cccc(OS(C)(=O)=O)c1` [Compound 13, (−)-cis-8,9-Dimethoxy-6-(3-methanesulfonyloxyphenyl)-1,2,3,4,4a,10b-hexahydrophenanthridine], the “−log IC50, inhibition” value is 8.33.

Consider `COc1cc2c(cc1OC)[C@@H]1CCCC[C@@H]1N=C2c1cccc(OS(=O)(=O)c2ccc(C)cc2)c1` [Compound 14, (−)-cis-8,9-Dimethoxy-6-[3-(p-toluenesulfonyloxy)phenyl)-1,2,3,4,4a,10b-hexahydrophenanthridine], for which the “−log IC50, inhibition” value is listed as 8.44.

Take `COc1cc2c(cc1OC)[C@@H]1CCCC[C@@H]1N=C2c1ccc(CN2CCOCC2)cc1` [Compound 21, (−)-cis-8,9-Dimethoxy-6-[4-(morpholin-4-ylmethyl)phenyl]-1,2,3,4,4a,10b-hexahydrophenanthridine]: the “−log IC50, inhibition” value was 7.35.

With `CCOc1cc2c(cc1OC)C(c1ccc(C(=O)c3ccccc3)cc1)=N[C@H]1CCCC[C@@H]21` [Compound 25, (−)-cis-9-Ethoxy-8-methoxy-6-(4-benzoylphenyl)-1,2,3,4,4a,10b-hexahydrophenanthridine], the “−log IC50, inhibition” value is given as 8.87.

Turning to `COc1ccc(C(=O)c2ccc(C3=N[C@H]4CCCC[C@H]4c4cc(OC)c(OC)cc43)cc2)cc1` [Compound 26, (−)-cis-8,9-Dimethoxy-6-[4-(4-methoxybenzoyl)phenyl]-1,2,3,4,4a,10b-hexahydrophenanthridine], the “−log IC50, inhibition” value is on record as 7.46.

Turning to `COc1cc2c(cc1OC)[C@@H]1CCCC[C@@H]1N=C2c1ccc(C(=O)c2ccc([N+](=O)[O-])cc2)cc1` [Compound 29, (−)cis-8,9-Dimethoxy-6-[4-(4-nitrobenzoyl)phenyl]-1,2,3,4,4a,10b-hexahydrophenanthridine], the “−log IC50, inhibition” value worked out at 7.28.

As for `COc1cc2c(cc1OC)[C@@H]1CCCC[C@@H]1N=C2c1ccc(C(=O)c2ccc(C#N)cc2)cc1` [Compound 31, (−)-cis-8,9-Dimethoxy-6-[4-(4-cyanobenzoyl)phenyl]-1,2,3,4,4a,10b-hexahydrophenanthridine], the “−log IC50, inhibition” value is 7.8.

`COc1cc2c(cc1OC)[C@@H]1CCCC[C@@H]1N=C2c1cccc(S(=O)(=O)c2ccccc2)c1` [Compound 33, (−)-cis-8,9-Dimethoxy-6-[3-(phenylsulfonyl)phenyl]-1,2,3,4,4a,10b-hexahydrophenanthridine]: the “−log IC50, inhibition” value is 8.23.

On to `COc1cc2c(cc1OC)[C@@H]1CCCC[C@@H]1N=C2c1ccc(S(=O)(=O)c2ccccc2)cc1` [Compound 34, (−)-cis-8,9-Dimethoxy-6-[4-(phenylsulfonyl)phenyl]-1,2,3,4,4a,10b-hexahydrophenanthridine], for which the “−log IC50, inhibition” value is 7.89.

As for `COc1ccc(Oc2cccc(C3=N[C@H]4CCCC[C@H]4c4cc(OC)c(OC)cc43)c2)cc1` [Compound 36, (−)-cis-8,9-Dimethoxy-6-[3-(4-methoxyphenoxy)phenyl]-1,2,3,4,4a,10b-hexahydrophenanthridine], the “−log IC50, inhibition” value is recorded as 8.78.

Consider `COc1cc2c(cc1OC)[C@@H]1CCCC[C@@H]1N=C2c1cccc(Oc2ccncc2)c1` [Compound 37, (−)-cis-8,9-Dimethoxy-6-[3-(pyrid-4-yloxy)phenyl]-1,2,3,4,4a,10b-hexahydrophenanthridine], for which the “−log IC50, inhibition” value was determined as 7.92.
